Active and inactive are the calls of the source.
How the values were obtained:
[1] = blockers of HIV-1 ZM109 envelope-driven cell-cell fusion – HeLa effector, CEM target cells, luciferase, cherry-pick, dose response (AID 652058); type: functional, cell-based;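 note: luciferase signal from HIV-1 Env mediated cell-cell fusion of effector and target cells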
[2] = off-target signal loss in HeLa-CEM21 co-culture – HeLa F-luc CTL cells, cherry-picked, counter-screen for HIV-1 Env fusion inhibitor project, dose response (AID 652040); type: functional, cell-based;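 note: potency for signal decrease marking cytotoxic or nonspecific inhibition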
[3] = HIV-1 AD8 envelope cell-cell fusion blockers – cherry-pick, dose response (AID 652062); type: functional, cell-based;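 note: luciferase signal from cell-cell fusion driven by HIV-1 clade B AD8 Env; potency is for inhibitors of fusion seen as a drop in luminescence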
[4] = blockers of HIV-1 envelope-mediated cell-cell fusion – cherry-pick, dose response (AID 652057); type: functional, cell-based
[5] = reduction of Shn3 3'UTR-driven luciferase in osteoblasts – cell-based, Clone20 osteoblasts, firefly luciferase, cherry-picked, dose response (AID 624132); type: functional;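 note: firefly luciferase luminescence from reporter carrying the Shn3 3'UTR in osteoblasts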
[6] = molecular target: T1, Histone-lysine N-methyltransferase NSD2 (Homo sapiens, UniProt O96028); type: biochemical
T1 sequence (O96028 whole entry): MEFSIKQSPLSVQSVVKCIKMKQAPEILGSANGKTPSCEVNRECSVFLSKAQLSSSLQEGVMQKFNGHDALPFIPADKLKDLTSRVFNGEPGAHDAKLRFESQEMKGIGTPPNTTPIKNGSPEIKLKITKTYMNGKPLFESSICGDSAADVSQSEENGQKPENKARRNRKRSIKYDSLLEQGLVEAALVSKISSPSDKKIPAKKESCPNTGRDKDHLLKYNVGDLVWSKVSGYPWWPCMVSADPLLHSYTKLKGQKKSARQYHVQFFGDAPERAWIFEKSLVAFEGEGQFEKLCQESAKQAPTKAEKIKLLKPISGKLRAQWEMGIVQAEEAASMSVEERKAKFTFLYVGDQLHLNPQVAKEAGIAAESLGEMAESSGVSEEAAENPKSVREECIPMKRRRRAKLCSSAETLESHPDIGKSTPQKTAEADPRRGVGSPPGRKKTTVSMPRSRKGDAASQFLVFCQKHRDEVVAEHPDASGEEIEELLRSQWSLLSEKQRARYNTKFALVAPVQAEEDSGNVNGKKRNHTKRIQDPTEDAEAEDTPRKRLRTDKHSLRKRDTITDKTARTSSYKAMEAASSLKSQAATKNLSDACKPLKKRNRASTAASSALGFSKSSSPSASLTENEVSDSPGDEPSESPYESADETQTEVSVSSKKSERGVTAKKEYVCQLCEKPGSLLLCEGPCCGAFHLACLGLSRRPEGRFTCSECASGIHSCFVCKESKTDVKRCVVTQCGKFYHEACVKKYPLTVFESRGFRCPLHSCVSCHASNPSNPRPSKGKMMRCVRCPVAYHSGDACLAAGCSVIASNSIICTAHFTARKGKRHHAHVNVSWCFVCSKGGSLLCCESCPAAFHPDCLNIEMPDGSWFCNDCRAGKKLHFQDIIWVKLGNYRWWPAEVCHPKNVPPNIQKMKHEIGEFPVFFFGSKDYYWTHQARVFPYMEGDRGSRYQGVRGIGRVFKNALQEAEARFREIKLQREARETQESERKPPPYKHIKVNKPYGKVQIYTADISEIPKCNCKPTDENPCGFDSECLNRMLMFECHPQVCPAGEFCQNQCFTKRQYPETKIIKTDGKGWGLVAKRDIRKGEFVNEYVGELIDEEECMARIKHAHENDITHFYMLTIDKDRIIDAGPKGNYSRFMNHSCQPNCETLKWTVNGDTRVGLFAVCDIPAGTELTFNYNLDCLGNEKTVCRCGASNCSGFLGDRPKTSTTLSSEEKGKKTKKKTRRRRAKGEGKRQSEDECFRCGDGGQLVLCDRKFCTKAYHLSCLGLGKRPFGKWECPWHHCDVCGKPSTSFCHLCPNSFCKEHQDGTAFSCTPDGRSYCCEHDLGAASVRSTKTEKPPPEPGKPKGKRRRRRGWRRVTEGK

cells = type: functional
Fatty acid synthase [7] = molecular target: T2, Fatty acid synthase (Homo sapiens, UniProt P49327); assay: inhibition of human FAS-TE enzyme activity – biochemical, endpoint fluorescence intensity, uHTS hits, dose response (AID 624327); type: functional;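 note: fluorescence from hydrolysis of an O-methyl fluorescein acyl ester substrate by the enzyme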
Fatty acid synthase [8] = molecular target: T2, Fatty acid synthase; assay: inhibition of human FAS-TE enzyme activity – biochemical, kinetic fluorescence intensity, dose response (AID 624326); type: functional;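 note: rate of fluorescence rise from hydrolysis of a fluorogenic O-methyl fluorescein ester substrate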
Large T antigen = Large T antigen (Simian virus 40, UniProt P03070); type: functional, Betapolyomavirus macacae;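 note: Confirmatory-stage PubChem screen for compounds that inhibit SV40 T antigen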
[9] = Luminescence Cell-Based Dose Response HTS to Identify Activators of Luciferase Translation or Activity in H4 […] Cells. [Related pubchem assays: 1829 (Project Summary), 1814 (Primary HTS)]; type: functional
[10] = Luminescence Cell-Based Dose Confirmation HTS to Identify Activators of 5'UTR Stem-Loop Driven Alpha-Synuclein mRNA Translation in H4 Neuroglioblastoma Cells. [Related pubchem assays: 1829 (Project Summary), 1814 (Primary HTS)]; type: functional
H4 = assay: Luminescence Cell-Based Dose Response HTS to Identify Activators of 5'UTR Stem-Loop Driven Prion Protein mRNA Translation in H4 Neuroglioblastoma Cells. [Related pubchem assays: 1829 (Project Summary), 1814 (Primary HTS)]; type: functional; conditions: Homo sapiens
Protein RecA = molecular target: T3, Protein RecA (Mycobacterium tuberculosis, UniProt P9WHJ3); assay: Fluorescence Cell-Free Homogeneous Dose Retest to Identify Inhibitors of RecA-Intein Splicing Activity. [Related pubchem assays (depositor defined):AID2097, AID2223, AID489010, AID492950]; type: functional
T3 sequence (P9WHJ3 whole entry): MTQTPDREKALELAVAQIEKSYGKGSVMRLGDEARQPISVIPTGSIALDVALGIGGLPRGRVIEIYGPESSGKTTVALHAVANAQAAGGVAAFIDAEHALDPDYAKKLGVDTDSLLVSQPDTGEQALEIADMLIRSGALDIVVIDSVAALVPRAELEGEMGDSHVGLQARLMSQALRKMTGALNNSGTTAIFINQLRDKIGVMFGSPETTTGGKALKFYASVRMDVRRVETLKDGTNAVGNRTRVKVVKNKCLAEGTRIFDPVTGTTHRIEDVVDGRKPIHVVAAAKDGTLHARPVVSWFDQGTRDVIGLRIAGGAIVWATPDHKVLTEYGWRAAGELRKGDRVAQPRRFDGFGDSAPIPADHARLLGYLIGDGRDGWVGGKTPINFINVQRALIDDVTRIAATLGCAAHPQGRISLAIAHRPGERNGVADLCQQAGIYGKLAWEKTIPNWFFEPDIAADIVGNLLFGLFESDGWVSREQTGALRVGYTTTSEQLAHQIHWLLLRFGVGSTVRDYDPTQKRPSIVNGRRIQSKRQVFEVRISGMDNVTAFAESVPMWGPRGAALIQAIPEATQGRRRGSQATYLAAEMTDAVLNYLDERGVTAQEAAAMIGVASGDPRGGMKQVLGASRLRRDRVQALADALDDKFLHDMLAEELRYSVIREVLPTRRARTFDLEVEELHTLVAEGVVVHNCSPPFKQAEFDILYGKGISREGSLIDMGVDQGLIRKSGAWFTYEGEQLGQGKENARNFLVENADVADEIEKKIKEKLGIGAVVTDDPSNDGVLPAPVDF

[11] = molecular target: T4, Replicative DNA helicase DnaB (Mycobacterium tuberculosis, UniProt P9WMR3); assay: DnaB intein splicing inhibitors, dose response, biochemical, cell-free fluorescence (AID 449749); type: functional
T4 sequence (P9WMR3 whole entry): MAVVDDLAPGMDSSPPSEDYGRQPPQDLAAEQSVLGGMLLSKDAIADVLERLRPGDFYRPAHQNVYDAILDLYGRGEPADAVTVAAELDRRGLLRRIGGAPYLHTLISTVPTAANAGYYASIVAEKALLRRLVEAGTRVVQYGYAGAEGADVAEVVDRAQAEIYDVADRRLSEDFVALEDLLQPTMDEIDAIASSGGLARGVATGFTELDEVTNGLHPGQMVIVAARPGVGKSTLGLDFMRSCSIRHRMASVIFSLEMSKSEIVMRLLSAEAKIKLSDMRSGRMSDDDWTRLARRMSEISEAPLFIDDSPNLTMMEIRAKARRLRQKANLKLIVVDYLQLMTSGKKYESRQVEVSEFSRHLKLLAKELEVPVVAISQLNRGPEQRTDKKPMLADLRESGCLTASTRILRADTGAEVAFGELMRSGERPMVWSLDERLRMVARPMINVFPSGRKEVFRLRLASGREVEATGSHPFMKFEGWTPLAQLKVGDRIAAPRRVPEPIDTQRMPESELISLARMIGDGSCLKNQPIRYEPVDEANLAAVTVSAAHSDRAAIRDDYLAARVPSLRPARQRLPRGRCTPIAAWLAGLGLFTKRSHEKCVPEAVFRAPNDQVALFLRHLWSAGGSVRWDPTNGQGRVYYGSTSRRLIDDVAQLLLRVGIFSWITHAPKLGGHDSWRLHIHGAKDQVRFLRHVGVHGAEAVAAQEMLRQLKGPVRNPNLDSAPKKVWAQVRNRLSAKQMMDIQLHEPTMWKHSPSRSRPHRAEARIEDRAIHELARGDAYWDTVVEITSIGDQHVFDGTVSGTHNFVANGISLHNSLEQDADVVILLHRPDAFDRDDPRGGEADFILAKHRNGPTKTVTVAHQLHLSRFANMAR

[12] = molecular target: T5, Rac GTPase-activating protein 1 (Homo sapiens, UniProt Q9H0H5); assay: blockers of MgcRacGAP-driven Rac1 GTP hydrolysis – biochemical, ADP Hunter fluorescence, primary and confirmatory, confirmation (AID 624330); type: functional
T5 sequence (Q9H0H5 whole entry): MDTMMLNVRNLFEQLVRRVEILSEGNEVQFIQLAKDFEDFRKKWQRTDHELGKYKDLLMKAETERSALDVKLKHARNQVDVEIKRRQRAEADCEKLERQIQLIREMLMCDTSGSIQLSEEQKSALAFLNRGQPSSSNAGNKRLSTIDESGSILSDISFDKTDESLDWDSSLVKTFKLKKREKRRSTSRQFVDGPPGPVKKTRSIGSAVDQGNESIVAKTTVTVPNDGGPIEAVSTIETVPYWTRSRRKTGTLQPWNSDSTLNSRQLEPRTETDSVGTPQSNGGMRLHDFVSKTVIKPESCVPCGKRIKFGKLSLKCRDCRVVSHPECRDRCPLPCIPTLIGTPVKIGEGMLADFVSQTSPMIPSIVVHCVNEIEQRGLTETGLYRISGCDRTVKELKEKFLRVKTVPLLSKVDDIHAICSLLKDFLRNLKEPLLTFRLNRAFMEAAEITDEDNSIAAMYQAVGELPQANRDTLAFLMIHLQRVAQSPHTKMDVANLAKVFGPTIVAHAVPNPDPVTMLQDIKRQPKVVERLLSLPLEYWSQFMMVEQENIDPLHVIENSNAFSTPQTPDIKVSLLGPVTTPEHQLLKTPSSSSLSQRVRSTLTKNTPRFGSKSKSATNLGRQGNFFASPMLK

[13] = molecular target: FAD-linked sulfhydryl oxidase ALR (Homo sapiens, UniProt P55789); assay: ALR-catalysed DTT oxidation blockers – biochemical, H2O2 detection, luminescence, cherry-pick, dose response (AID 493248)
Sequence of FAD-linked sulfhydryl oxidase ALR (P55789 whole entry): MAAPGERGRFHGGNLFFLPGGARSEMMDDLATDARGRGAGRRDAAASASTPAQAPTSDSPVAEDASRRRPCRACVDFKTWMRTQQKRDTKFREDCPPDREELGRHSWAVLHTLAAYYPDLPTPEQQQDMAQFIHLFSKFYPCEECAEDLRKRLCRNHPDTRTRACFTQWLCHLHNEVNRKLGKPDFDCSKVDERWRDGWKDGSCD

T2 sequence (P49327 whole entry): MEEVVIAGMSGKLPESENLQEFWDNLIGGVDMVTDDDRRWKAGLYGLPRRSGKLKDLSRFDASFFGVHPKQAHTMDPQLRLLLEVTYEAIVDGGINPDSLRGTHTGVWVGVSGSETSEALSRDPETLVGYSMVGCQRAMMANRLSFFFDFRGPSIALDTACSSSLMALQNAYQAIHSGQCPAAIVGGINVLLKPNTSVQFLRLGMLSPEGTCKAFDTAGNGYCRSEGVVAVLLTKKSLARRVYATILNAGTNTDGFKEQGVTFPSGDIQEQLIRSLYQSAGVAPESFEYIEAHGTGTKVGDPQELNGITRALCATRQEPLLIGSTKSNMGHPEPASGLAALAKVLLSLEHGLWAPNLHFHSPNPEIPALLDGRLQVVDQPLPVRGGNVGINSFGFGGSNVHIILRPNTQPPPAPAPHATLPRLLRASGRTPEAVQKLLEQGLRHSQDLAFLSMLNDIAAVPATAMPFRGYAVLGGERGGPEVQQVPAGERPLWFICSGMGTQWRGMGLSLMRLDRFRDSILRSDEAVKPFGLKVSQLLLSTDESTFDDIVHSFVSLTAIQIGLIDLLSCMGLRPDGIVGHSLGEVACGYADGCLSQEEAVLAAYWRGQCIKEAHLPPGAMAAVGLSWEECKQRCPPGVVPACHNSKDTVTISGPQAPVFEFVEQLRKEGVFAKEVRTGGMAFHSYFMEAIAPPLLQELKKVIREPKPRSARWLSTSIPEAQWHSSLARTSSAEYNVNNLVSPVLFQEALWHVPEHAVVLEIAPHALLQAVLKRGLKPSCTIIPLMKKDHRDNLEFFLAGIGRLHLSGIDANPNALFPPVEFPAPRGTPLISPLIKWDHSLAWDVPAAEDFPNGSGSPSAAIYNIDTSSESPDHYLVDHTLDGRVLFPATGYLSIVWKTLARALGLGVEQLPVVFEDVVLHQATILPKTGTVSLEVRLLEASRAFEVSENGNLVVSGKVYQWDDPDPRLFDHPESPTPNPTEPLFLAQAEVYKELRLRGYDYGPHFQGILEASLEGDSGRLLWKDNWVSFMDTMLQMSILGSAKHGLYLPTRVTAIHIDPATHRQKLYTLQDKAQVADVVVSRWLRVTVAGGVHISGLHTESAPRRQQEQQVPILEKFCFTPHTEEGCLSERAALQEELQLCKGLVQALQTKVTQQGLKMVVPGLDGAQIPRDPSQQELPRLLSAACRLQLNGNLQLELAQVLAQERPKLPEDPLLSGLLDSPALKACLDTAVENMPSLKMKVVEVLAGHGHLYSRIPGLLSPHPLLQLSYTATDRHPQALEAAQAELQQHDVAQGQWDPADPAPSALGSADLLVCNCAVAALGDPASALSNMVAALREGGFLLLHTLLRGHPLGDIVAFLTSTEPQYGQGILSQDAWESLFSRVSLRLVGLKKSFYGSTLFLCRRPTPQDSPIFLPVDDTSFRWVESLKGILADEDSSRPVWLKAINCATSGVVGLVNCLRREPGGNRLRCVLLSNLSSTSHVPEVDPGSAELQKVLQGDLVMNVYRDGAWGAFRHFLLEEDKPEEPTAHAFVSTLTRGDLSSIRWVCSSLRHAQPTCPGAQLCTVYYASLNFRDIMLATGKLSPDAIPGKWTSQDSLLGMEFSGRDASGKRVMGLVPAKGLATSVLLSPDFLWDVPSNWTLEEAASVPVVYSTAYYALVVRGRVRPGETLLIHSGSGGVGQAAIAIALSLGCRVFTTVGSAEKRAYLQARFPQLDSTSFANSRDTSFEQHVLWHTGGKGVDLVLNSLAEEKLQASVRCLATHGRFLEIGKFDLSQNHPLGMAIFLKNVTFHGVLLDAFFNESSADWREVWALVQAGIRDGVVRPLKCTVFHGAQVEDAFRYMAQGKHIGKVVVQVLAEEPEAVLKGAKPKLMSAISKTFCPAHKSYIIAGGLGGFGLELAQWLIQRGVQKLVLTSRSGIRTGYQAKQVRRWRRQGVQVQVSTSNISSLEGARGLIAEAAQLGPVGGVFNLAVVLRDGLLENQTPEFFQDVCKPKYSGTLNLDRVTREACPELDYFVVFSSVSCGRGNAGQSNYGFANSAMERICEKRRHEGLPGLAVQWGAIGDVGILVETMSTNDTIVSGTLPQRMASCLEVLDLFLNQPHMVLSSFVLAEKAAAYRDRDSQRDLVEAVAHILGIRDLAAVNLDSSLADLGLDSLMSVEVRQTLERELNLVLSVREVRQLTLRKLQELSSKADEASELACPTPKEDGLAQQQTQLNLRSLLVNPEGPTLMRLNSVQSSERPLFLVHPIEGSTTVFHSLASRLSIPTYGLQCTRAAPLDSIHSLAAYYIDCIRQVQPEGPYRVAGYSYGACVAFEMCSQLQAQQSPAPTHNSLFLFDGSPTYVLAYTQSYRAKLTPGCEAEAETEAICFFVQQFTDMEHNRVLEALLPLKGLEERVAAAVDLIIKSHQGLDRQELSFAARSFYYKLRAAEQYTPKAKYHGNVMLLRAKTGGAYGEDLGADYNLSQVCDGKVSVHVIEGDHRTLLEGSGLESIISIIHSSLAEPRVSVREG
Sequence of Large T antigen (P03070 whole entry): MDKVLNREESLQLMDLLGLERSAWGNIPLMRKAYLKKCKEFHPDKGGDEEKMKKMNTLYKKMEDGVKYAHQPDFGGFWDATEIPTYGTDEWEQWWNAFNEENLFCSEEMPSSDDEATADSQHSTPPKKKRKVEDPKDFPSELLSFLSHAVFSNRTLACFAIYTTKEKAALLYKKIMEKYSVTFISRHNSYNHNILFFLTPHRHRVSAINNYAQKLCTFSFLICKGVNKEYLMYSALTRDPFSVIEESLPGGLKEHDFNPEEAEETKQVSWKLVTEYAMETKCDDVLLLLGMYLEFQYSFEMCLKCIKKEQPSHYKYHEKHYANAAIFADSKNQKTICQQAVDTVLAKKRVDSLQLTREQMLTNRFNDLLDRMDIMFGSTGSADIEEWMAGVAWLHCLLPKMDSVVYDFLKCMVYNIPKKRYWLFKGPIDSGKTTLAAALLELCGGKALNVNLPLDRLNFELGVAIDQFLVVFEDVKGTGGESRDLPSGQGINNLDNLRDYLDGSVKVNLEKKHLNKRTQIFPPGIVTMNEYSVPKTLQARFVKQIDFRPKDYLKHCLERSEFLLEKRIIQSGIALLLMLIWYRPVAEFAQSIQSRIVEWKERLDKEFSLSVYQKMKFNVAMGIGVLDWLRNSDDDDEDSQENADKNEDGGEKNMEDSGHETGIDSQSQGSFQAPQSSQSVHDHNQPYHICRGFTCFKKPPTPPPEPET

For Cc1cc(Oc2ccc(C#N)cc2)nc(NCc2ccccc2)n1, the AC50 [1] was 5.62 µM (active), the AC50 [2] was > 70 µM (inactive) and the AC50 [3] was 9.81 µM (active).
For O=C(N(Cc1ccccc1)c1ccccn1)C12CC3CC(CC(C3)C1)C2, the AC50 [1] was 2.19 µM (active), the AC50 [4] was 1.62 µM (active) and the AC50 [2] was 2.99 µM (active). The AC50 [3] was 6.03 µM (active).
With CCOc1ccc2nc(SC3CC(=O)N(c4ccc(C)cc4)C3=O)sc2c1 (centres undefined) the AC50 [5] was 15.6 µM (active).
For Cc1cc([N+](=O)[O-])cc2c1NC(=O)C2(O)N1CCOCC1 (centres undefined), the AC50 [6] was 15.7 µM (active).
With CNCc1ccc(OCc2ccccc2)c(OC)c1 the AC50 [6] was > 20 µM (inactive).
For CC(NC(=O)c1cc([N+](=O)[O-])cc([N+](=O)[O-])c1)c1ccc(-n2ccnc2)cc1 (centres undefined), the IC50 (cells) was 1.43 µM (active), the IC50 (Fatty acid synthase [7]) was 10.1 µM (active) and the IC50 (Fatty acid synthase [8]) was 6.68 µM (active).
In the case of CCc1ccc(C2CC(=O)N3CN(c4ccccc4)CSC3=C2C#N)cc1 (centres undefined), the IC50 (Large T antigen) is reported as 70.1 µM (active).
With CNCc1ccccc1OCc1ccc(F)cc1 the AC50 [6] was > 20 µM (inactive).
For Cc1oc(-c2ccccc2F)nc1CN1CCC(C(=O)NCCC2=CCCCC2)CC1, the AC50 [1] was 4.91 µM (active), the AC50 [4] was 5.29 µM (active) and the AC50 [3] was 1.28 µM (active).
For O=C(c1ccco1)N1CCCC(Nc2ccc3c(c2)OCCO3)C1 (centres undefined), the IC50 (Large T antigen) was 29.3 µM (active), the EC50 [9] was 9.98 µM (active) and the EC50 [10] was 8.81 µM (active). The EC50 (H4) was 37.7 µM (active).
With CCN(CC)CCSc1nc2ccccc2c(=S)n1-c1ccccc1 the AC50 [6] was > 20 µM (inactive).
With COc1ccc([C@H]2/C=C\CN(C(=O)C3CC3)[C@@H](C)C(=O)N2Cc2ccc(F)cc2)cc1 the AC50 [1] was 0.488 µM (active), the AC50 [4] was 4.42 µM (active) and the AC50 [2] was 7.85 µM (active). For the same molecule, the AC50 [3] was 4.99 µM (active).
With CCN1Cc2c(/C=C/c3ccccc3)nc3ccc(OC)cc3c2N(c2cccc(Cl)c2)C1 the IC50 (Fatty acid synthase [7]) was 2.35 µM (active), the EC50 (Protein RecA) was 17.6 µM (active) and the AC50 [11] was > 380 µM (inactive). The IC50 (Fatty acid synthase [8]) was 3.61 µM (active).
In the case of COc1ccc(S(=O)(=O)Nc2ccc3c(c2)CC(=O)N([C@@H](C)CO)C[C@H](C)[C@H](CN(C)S(=O)(=O)c2ccc(F)cc2)O3)cc1, the AC50 [1] is reported as 11.4 µM (active), the AC50 [4] is reported as 10 µM (active) and the AC50 [3] is reported as 18.6 µM (active).
With COc1ccc(/N=C/c2c(O)cc(C)oc2=O)cc1 the IC50 (Large T antigen) was 7.84 µM (active) and the IC50 [12] was 85.2 µM (active).
For COc1cc(/C=N/n2nnnc2N)ccc1O, the IC50 (Large T antigen) was 4.83 µM (active), the IC50 [12] was 16.9 µM (active) and the AC50 [13] was 1.2 µM (active).
